Columns and labels:
CAKI-1 = experiment: NCI human tumor cell panel: CAKI-1 (Renal Cancer); assay type: cell-based; details: CAKI-1, Renal Cancer
HCT-15 = experiment: NCI human tumor cell panel: HCT-15 (Colon Cancer); assay type: cell-based; details: HCT-15, Colon Cancer
ACHN = experiment: NCI human tumor cell panel: ACHN (Renal Cancer); assay type: cell-based; details: Renal Cancer
NCI-H522 = experiment: NCI human tumor cell panel: NCI-H522 (Non-Small Cell Lung Cancer)
[1] = system: panel of sixty different human tumor cell lines; experiment: NCI human tumor cell panel: whole panel (mean graph summary); details: Homo sapiens
COLO 205 = experiment: NCI human tumor cell panel: COLO 205 (Colon Cancer); assay type: cell-based; details: COLO 205, Colon Cancer
NCI-H226 = experiment: NCI human tumor cell panel: NCI-H226 (Non-Small Cell Lung Cancer); assay type: cell-based; details: NCI-H226, Non-Small Cell Lung Cancer
HT29 = experiment: NCI human tumor cell panel: HT29 (Colon Cancer); assay type: cell-based; details: HT-29, HT29, Colon Cancer
SK-MEL-28 = experiment: NCI human tumor cell panel: SK-MEL-28 (Melanoma); assay type: cell-based; details: SK-MEL-28, Melanoma
OVCAR-3 = experiment: NCI human tumor cell panel: OVCAR-3 (Ovarian Cancer); assay type: cell-based; details: OVCAR-3, Ovarian Cancer
TK-10 = experiment: NCI human tumor cell panel: TK-10 (Renal Cancer); assay type: cell-based; details: TK-10, Renal Cancer
SF-268 = experiment: NCI human tumor cell panel: SF-268 (CNS Cancer); assay type: cell-based; details: SF-268, CNS Cancer
HCC-2998 = experiment: NCI human tumor cell panel: HCC-2998 (Colon Cancer); assay type: cell-based; details: HCC-2998, Colon Cancer, read-out: Log10 TGI (converted)
MDA-MB-231/ATCC = experiment: NCI human tumor cell panel: MDA-MB-231/ATCC (Breast Cancer); assay type: cell-based; details: Homo sapiens, MDA-MB-231, MDA-MB-231/ATCC, Breast Cancer
RXF-393 = experiment: NCI human tumor cell panel: RXF-393 (Renal Cancer); assay type: cell-based; details: RXF-393, Renal Cancer
U251 = experiment: NCI human tumor cell panel: U251 (CNS Cancer); assay type: cell-based; details: U-251, U251, CNS Cancer
SK-OV-3 = experiment: NCI human tumor cell panel: SK-OV-3 (Ovarian Cancer); assay type: cell-based; details: SK-OV-3, Ovarian Cancer
A549/ATCC = experiment: NCI human tumor cell panel: A549/ATCC (Non-Small Cell Lung Cancer); assay type: cell-based; details: Non-Small Cell Lung Cancer
T-47D = experiment: NCI human tumor cell panel: T-47D (Breast Cancer); assay type: cell-based; details: T47D, Breast Cancer, read-out: Log10 TGI (converted)
NCI-H322M = experiment: cells; assay type: cell-based; details: Homo sapiens, Non-Small Cell Lung Cancer
EKVX = experiment: NCI human tumor cell panel: EKVX (Non-Small Cell Lung Cancer); assay type: cell-based; details: Non-Small Cell Lung Cancer, read-out: Log10 GI50 (converted)
MOLT-4 = experiment: NCI human tumor cell panel: MOLT-4 (Leukemia); assay type: cell-based; details: MOLT-4, Leukemia
SNB-19 = experiment: NCI human tumor cell panel: SNB-19 (CNS Cancer); assay type: cell-based; details: SNB-19, CNS Cancer
K-562 = experiment: NCI human tumor cell panel: K-562 (Leukemia); assay type: cell-based; details: K562, K-562, Leukemia
KM12 = experiment: NCI human tumor cell panel: KM12 (Colon Cancer); assay type: cell-based; details: KM12, Colon Cancer
PC-3 = experiment: NCI human tumor cell panel: PC-3 (Prostate Cancer); assay type: cell-based; details: PC-3, Prostate Cancer
HL-60(TB) = experiment: NCI human tumor cell panel: HL-60(TB) (Leukemia); assay type: cell-based; details: Leukemia, read-out: Log10 GI50 (converted)
HCT-116 = experiment: NCI human tumor cell panel: HCT-116 (Colon Cancer); assay type: cell-based; details: HCT-116, Colon Cancer
MALME-3M = experiment: NCI human tumor cell panel: MALME-3M (Melanoma); assay type: cell-based; details: MALME-3M, Melanoma
[2] = read-out: Log10 GI50 (converted)
[3] = read-out: Log10 TGI (converted)

O=Cc1ccc(-c2ccc(-c3ccc(C=O)[se]3)s2)[se]1 [NSC 676630]
20.9 µM: GI50 (NCI-H522; NCI-H522, read-out: Log10 GI50 (converted))
26.3 µM: GI50 ([1]; read-out: Delta Log10 GI50, whole panel, line Delta (converted))
0.38 µM: GI50 (TK-10; [2])
0.589 µM: GI50 (U251; [2])
1.62 µM: IC (TGI) (TK-10; [3])
0.741 µM: GI50 (CAKI-1; [2])
3.02 µM: GI50 (HCT-116; [2])
15.1 µM: IC (TGI) (CAKI-1; [3])
0.49 µM: IC (TGI) (NCI-H226; [3])
0.724 µM: GI50 (OVCAR-3; [2])
3.39 µM: GI50 (K-562; [2])
53.7 µM: IC (TGI) (NCI-H522; NCI-H522, read-out: Log10 TGI)
0.191 µM: GI50 (NCI-H226; [2])
> 100 µM: GI50 (HCT-15; [2]) | IC (TGI) (HCT-15; [3]) | GI50 (ACHN; [2]) | IC (TGI) (ACHN; [3]) | IC (TGI) (COLO 205; [3]) | GI50 (HT29; [2]) | IC (TGI) (HT29; [3]) | GI50 (SK-MEL-28; [2]) | IC (TGI) (SK-MEL-28; [3]) | IC (TGI) (OVCAR-3; [3]) | GI50 (SF-268; [2]) | IC (TGI) (SF-268; [3]) | GI50 (MDA-MB-231/ATCC; [2]) | IC (TGI) (MDA-MB-231/ATCC; [3]) | GI50 (RXF-393; [2]) | IC (TGI) (RXF-393; [3]) | IC (TGI) (U251; [3]) | GI50 (SK-OV-3; [2]) | IC (TGI) (SK-OV-3; [3]) | IC (TGI) (A549/ATCC; [3]) | IC (TGI) (T-47D) | GI50 (NCI-H322M; [2]) | IC (TGI) (NCI-H322M; [3]) | GI50 (EKVX) | GI50 (MOLT-4; [2]) | IC (TGI) (MOLT-4; [3]) | GI50 (SNB-19; [2]) | IC (TGI) (SNB-19; [3]) | IC (TGI) (K-562; [3]) | GI50 (KM12; [2]) | IC (TGI) (KM12; [3]) | GI50 (PC-3; [2]) | IC (TGI) (PC-3; [3]) | GI50 (HL-60(TB)) | IC (TGI) (HCT-116; [3]) | GI50 (MALME-3M; [2]) | IC (TGI) (MALME-3M; [3])
87.1 µM: GI50 (A549/ATCC; [2])
93.3 µM: GI50 (COLO 205; [2])
85.1 µM: CC50 ([1]; read-out: Delta Log10 LC50, whole panel, line Delta (converted)) | IC (TGI) (HCC-2998)
